Measured values as given in paper PMC6147116 (Journal of Enzyme Inhibition and Medicinal Chemistry, 2018).
Where two headings read alike, the source gives them in different places.

How the values were obtained:
human aromatase = biological target: T1, human aromatase (Homo sapiens, UniProt P11511); test: Aromatase inhibition, in vitro radiosubstrate incubation (testosterone to E2 conversion), human placental microsomes; format: biochemical; conditions: for remaining activity at 10 µM: 10 µM test compound, non-inhibited control 100%, mean ± SD, n = 3, read-out: Arom Rel.conv. ± SD
T1 construct: from tissue; host or cells: human term placenta, microsomal fraction
T1 sequence (P11511 1-503): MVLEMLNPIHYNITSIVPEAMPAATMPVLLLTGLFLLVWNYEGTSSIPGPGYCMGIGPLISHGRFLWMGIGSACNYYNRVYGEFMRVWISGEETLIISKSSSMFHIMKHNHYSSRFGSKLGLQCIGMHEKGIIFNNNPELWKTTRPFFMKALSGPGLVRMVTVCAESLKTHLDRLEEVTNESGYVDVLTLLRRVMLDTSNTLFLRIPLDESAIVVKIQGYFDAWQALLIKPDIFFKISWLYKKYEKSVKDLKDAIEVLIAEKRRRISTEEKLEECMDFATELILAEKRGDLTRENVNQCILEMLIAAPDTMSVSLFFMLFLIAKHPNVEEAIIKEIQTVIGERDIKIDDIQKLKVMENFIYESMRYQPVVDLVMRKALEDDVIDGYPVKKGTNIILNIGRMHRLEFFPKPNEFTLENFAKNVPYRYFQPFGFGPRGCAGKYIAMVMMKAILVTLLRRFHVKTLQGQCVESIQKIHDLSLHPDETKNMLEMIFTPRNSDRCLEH
Method: (§1) Enzyme inhibition studies were performed by in vitro radiosubstrate incubations using human term placenta cytosol and microsomas as enzyme sources. […] Relative conversions compared to non-inhibited controls (100%) were measured in the presence of 10 µM concentration of the test compound. […] Mechanistic and kinetic investigations were performed and inhibitory constants (Ki) were determined for selected compounds.
(§2) Enzymatic incubations were carried out in the HEPES buffer medium at a final volume of 200
(§3) µl. The substrate was added to the incubate in 20 µl of a 25 v/v% propylene glycol in HEPES buffer solution, whereas test compounds were applied in 10 µl of dimethyl sulfoxide solution.
Incubations were performed at 37 °C and terminated by cooling and the addition of organic solvents of the subsequent extraction procedure. Control samples with no inhibitor and blank samples were incubated simultaneously. The radioactivity of the products formed was measured by means of liquid scintillation counting (LSC) and taken as indicator of the […]
In the aromatase assays the microsoma suspension was incubated with appropriate concentration of unlabelled testosterone (2) substrate spiked with [1,2,6,7-3H]testosterone tracer, and in the presence of 0.1 mM NADPH cofactor excess. (In this case, solution of the substrate was prepared with acetonitrile instead of propylene glycol.) Incubation time was 40 min. The incubation mixture was extracted with toluene, then the toluene phase was drained and washed with HEPES buffer. Aromatase products containing phenolic hydroxy group were extracted with 1.2 M sodium hydroxide solution from the toluene extract and the alkaline phase was measured in the LSC. […]
was extracted with toluene. […]
(§4) In the general procedure, incubations were performed as described. Concentrations of the substrates were 1.0 µM, and the test compounds were applied at 10 µM final concentration in the incubate. Relative conversions compared to non-inhibited controls (100%) were determined. The assays were performed in triplicate, and the mean value and the standard deviation (SD) were calculated. […]
(§5) these cases, conversions were measured at 10–15 different concentrations in the appropriate interval between 0.001–50 µM. IC50 results were calculated by using unweighted iterative least squares logistic curve fitting by means of the “absolute IC50 calculation“ function of the GraphPad Prism 4.0 software (GraphPad Software, Inc., San Diego, CA, USA).
Kinetic analyses were performed via measurement of the enzymatic transformation using different fixed substrate concentrations and varied inhibitor concentrations. The Dixon’s linear transformation (1/velocity vs. inhibitor concentration) was applied for evaluation and the inhibition constant (Ki) was determined from abscissa of intersection of the lines of different substrate concentrations. Mechanism of binding was identified according to the […]

steroid sulfatase (STS) [1] = biological target: T2, steroid sulfatase (STS) (Homo sapiens, UniProt P08842); test: STS inhibition, in vitro radiosubstrate incubation (release of E1 from E1S), human placental microsomes; Dixon kinetic analysis; format: biochemical; conditions: for STS inhibition mechanism: Dixon's plots; for Ki: from Dixon plot; for remaining activity at 10 µM: 10 µM test compound, non-inhibited control 100%, mean ± SD, n = 3, read-out: STS Rel.conv. ± SD
T2 construct: from tissue; host or cells: human term placenta, microsomal fraction
T2 sequence (P08842 22-583): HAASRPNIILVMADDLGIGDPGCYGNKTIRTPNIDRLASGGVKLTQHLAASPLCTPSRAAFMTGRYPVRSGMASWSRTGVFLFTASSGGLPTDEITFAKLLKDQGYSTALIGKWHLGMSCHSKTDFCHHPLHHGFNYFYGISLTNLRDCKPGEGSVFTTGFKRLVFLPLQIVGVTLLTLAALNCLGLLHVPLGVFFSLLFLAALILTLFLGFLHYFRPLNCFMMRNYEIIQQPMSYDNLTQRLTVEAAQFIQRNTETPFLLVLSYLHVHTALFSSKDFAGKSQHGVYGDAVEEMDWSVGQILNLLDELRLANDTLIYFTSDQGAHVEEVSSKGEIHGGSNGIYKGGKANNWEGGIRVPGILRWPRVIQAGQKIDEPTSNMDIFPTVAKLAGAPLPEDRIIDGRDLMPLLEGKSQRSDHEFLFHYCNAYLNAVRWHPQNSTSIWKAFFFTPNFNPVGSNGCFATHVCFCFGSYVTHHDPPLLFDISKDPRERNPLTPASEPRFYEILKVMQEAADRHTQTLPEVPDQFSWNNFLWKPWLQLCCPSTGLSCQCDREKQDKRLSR
Method: as §1
Kinetic analyses of selected compounds 7a and 16c were performed by measurement of enzyme activities using different fixed substrate concentrations and varied inhibitor concentrations.
as §2, §3
(§6) Incubations were performed at 37 °C and terminated by cooling and the addition of organic solvents of the subsequent extraction procedure. Control samples with no inhibitor and blank samples were incubated simultaneously. […]
The incubation time was 2.5 min. […]
as §4, §5
(§7) Kinetic analyses were performed via measurement of the enzymatic transformation using different fixed substrate concentrations and varied inhibitor concentrations. The Dixon’s linear transformation (1/velocity vs. inhibitor concentration) was applied for evaluation and the inhibition constant (Ki) was determined from abscissa of intersection of the lines of different substrate concentrations. Mechanism of binding was identified according to the Dixon’s graphs and the secondary plot of slopes of the Dixon’s lines vs. 1/substrate […]
The inhibitor compounds were preincubated with the appropriate placenta fraction in a volume of 4.0 µl at 37 °C for various time periods (2.5-40 min). Following this procedure, […]

[2] = biological target: T3, 17β-hydroxysteroid dehydrogenase type 1 (17β-HSD1) (Homo sapiens, UniProt P14061); test: 17β-HSD1 inhibition, in vitro radiosubstrate incubation (E1 to E2), human placental cytosol; Dixon kinetic analysis; format: biochemical; conditions: for IC50: E1 substrate 1.0 µM, NADPH excess, read-out: 17β-HSD1 IC50 ± SD; for 17β-HSD1 Rel.conv. ± SD: 10 µM test compound, non-inhibited control 100%, mean ± SD, n = 3; for 17β-HSD1 inhibition mechanism: Dixon's plot; for 17β-HSD1 inhibition mechanism / Ki: cofactor excess; for Ki: from Dixon plot
T3 sequence (P14061 1-328): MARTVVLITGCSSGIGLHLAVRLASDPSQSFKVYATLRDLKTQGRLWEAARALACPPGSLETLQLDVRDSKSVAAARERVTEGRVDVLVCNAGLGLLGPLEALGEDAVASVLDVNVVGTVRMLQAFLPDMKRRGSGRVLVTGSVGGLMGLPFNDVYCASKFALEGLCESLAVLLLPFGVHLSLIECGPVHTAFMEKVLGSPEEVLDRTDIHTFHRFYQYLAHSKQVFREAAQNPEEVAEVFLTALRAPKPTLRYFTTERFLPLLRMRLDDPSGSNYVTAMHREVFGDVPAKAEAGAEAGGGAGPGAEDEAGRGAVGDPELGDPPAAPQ
Method: as §1
Inhibitors that bind to the steroid site of 17β-HSD1 can bind to both the free enzyme and the binary enzyme–cofactor complex by random kinetic mechanism.
as §2, §3, §6
The incubation time was 2.5 min. The product 17β-estradiol (E2, 5) was extracted with ethyl acetate and isolated by a TLC method (details are published in our earlier reference).
as §4, §5, §7
The inhibitor compounds were preincubated with the appropriate placenta fraction in a volume of 4.0 µl at 37 °C for various time periods (2.5-40 min). Following this procedure, samples were diluted with the incubation medium to 50-fold. Enzyme activity measurements

aromatase enzyme = biological target: aromatase enzyme; parameters: method as in PMID 16039845; conditions: cited from earlier work
steroid sulfatase (STS) [3] = biological target: T2, steroid sulfatase (STS); test: STS inhibition reversibility test (preincubation with placental microsomes, 50-fold dilution); format: biochemical; conditions: preincubation 7a 1.5 μM, 16c 10 μM; for STS binding reversibility: 50-fold dilution, 20 min secondary incubation
[4] = biological target: T3, 17β-hydroxysteroid dehydrogenase type 1 (17β-HSD1); conditions: earlier paper of the authors; read-out: 17β-HSD1 IC50 ± SD; cited from earlier work
17β-HSD1 = biological target: T4, 17β-HSD1 (Homo sapiens, UniProt P14061); test: 17β-HSD1 inhibition reversibility test (preincubation with placental cytosol, 50-fold dilution); format: biochemical; conditions: preincubation 10 μM, 2.5 and 20 min
T4 construct: from tissue; host or cells: human term placenta, cytosolic fraction
T4 sequence (P14061 1-328): T3 sequence (P14061 1-328)
Method: as §5, §7
The inhibitor compounds were preincubated with the appropriate placenta fraction in a volume of 4.0 µl at 37 °C for various time periods (2.5-40 min). Following this procedure, samples were diluted with the incubation medium to 50-fold. Enzyme activity measurements were started immediately for the 17β-HSD1 and after 20 min secondary incubation time to allow dissociation in the case of STS. […]

[5] = E1S substrate 1.0 µM, read-out: STS IC50 ± SD

| Structure (SMILES) | IC50 (steroid sulfatase (STS) [1]; [5]) [nM] | IC50 [2] [nM] | remaining activity at 10 µM (human aromatase) [%] | IC50 [4] [nM] | other results |
| --- | --- | --- | --- | --- | --- |
| C[C@]12CC[C@@H]3c4cc(Br)c(O)cc4CC[C@H]3[C@@H]1CCC2=O [6b, 2-Bromoestrone] | 2000 ± 400 | 95 ± 31 | – | – | IC50 (human aromatase): 8.7 ± 2.8 µM; IC50 (aromatase enzyme): 2400 nM |
| C[C@]12CC[C@@H]3c4cc(Cl)c(O)cc4CC[C@H]3[C@@H]1CCC2=O [6c, 2-Chloroestrone] | 2400 ± 400 | 180 ± 20 | – | – | IC50 (human aromatase): 6 ± 1.2 µM; Ki (aromatase enzyme): 130 nM; enhancement in affinity to aromatase compared to E1 (aromatase enzyme): ~20 fold |
| C[C@]12CCC[C@H]1[C@@H]1CCc3c(cc(Cl)c(O)c3Cl)[C@H]1CC2 [16c, 2,4-bis-chloro-17-deoxy-13α-estrone] | 1300 ± 400 | – | 82 ± 12 | – | STS inhibition mechanism (steroid sulfatase (STS) [1]): competitive; Ki (steroid sulfatase (STS) [1]): 1900 nM; 17β-HSD1 Rel.conv. ± SD [2]: 53 ± 2%; time in which irreversible binding to STS is nearly completed (steroid sulfatase (STS) [3]): ≤ 2.5 min; STS binding reversibility (steroid sulfatase (STS) [3]): irreversible |
| C[C@@]12CC[C@@H]3c4cc(Br)c(O)c(Br)c4CC[C@H]3[C@@H]1CCC2=O [12b] | – | – | 108 ± 11 | 2700 ± 100 | remaining activity at 10 µM (steroid sulfatase (STS) [1]): 71 ± 4% |
| C[C@@]12CC[C@@H]3c4cc(Br)c(O)cc4CC[C@H]3[C@@H]1CCC2=O [10b] | – | – | 100 ± 5 | 1200 ± 300 | remaining activity at 10 µM (steroid sulfatase (STS) [1]): 81 ± 6% |
| C[C@]12CC[C@@H]3c4ccc(O)cc4CC[C@H]3[C@@H]1CCC2=O [E1 (4), estrone, reference compound] | – | – | 78 | – | IC50 (human aromatase): > 10 µM; IC50 (steroid sulfatase (STS) [1]): 24000 ± 10000 nM; Ki (aromatase enzyme): 2500 nM |
| C[C@@]12CC[C@@H]3c4cc(I)c(O)cc4CC[C@H]3[C@@H]1CCC2=O [10a] | – | – | 82 ± 10 | 590 ± 230 | remaining activity at 10 µM (steroid sulfatase (STS) [1]): 83 ± 3% |
| C[C@@]12CC[C@@H]3c4ccc(O)c(I)c4CC[C@H]3[C@@H]1CCC2=O [11a] | 6000 ± 1600 | 380 | 90 ± 7 | 1000 ± 300 | 17β-HSD1 inhibition mechanism [2]: competitive; Ki [2]: 2200 nM; 17β-HSD1 binding reversibility (17β-HSD1): reversible |
| C[C@@]12CC[C@@H]3c4ccc(O)c(Br)c4CC[C@H]3[C@@H]1CCC2=O [11b] | 8500 ± 3100 | – | 78 ± 1 | 2100 ± 1200 | – |
| C[C@@]12CC[C@@H]3c4cc(I)c(O)c(I)c4CC[C@H]3[C@@H]1CCC2=O [12a] | 2400 ± 500 | 1000 | 91 ± 1 | 380 ± 80 | 17β-HSD1 inhibition mechanism [2]: competitive; Ki [2]: 940 nM; 17β-HSD1 binding reversibility (17β-HSD1): reversible |
| C[C@]12CCC[C@H]1[C@@H]1CCc3c(ccc(O)c3I)[C@H]1CC2 [15a] | 2700 ± 1300 | – | 92 ± 7 | – | 17β-HSD1 Rel.conv. ± SD [2]: 57 ± 9% |
| C[C@]12CC[C@@H]3c4ccc(O)c(I)c4CC[C@H]3[C@@H]1CCC2=O [7a, 4-iodoestrone] | 230 ± 90 | 360 ± 250 | 88 ± 2 | – | STS inhibition mechanism (steroid sulfatase (STS) [1]): competitive; Ki (steroid sulfatase (STS) [1]): 360 nM; STS affinity higher compared to the E1S substrate (steroid sulfatase (STS) [1]; from IC50 values): 22 fold; STS affinity increased compared to E1 (steroid sulfatase (STS) [1]; from IC50 values): 100 fold; time in which irreversible binding to STS is nearly completed (steroid sulfatase (STS) [3]): ≤ 2.5 min; STS binding reversibility (steroid sulfatase (STS) [3]): irreversible |
